Several values for one entry are separate records, joined by “and”; a condition that tells them apart may be missing. Equal entries are not always repeated.
Columns and labels:
ACSS2 [1] = biological target: T1, ACSS2 (Homo sapiens, UniProt Q9NR19); experiment: cell-based
Protocol: (§1) ACSS2 Cellular Activity Assay (Cellular IC50)
(§2) The cellular activity of ACSS2 was based on tracing the incorporation of carbons from ^13C-Acetate into fatty-acids.
(§3) BT474/MDA-MB-468 cells growing in DMEM+25 mM D-glucose+1 mM sodium pyruvate+10% FBS+2 mM glutamine were plated in 12-well plates at 0.4×10^6 cells/well. The cells were then incubated at CO2 incubator for 24 hrs at hypoxic conditions (1% O2) before treated with compounds. At day 2, the medium was replaced to DMEM medium containing 15 mM Glucose, 1 mM Pyruvate, 0.65 mM Glutamine, 1% Dialyzed serum, 3.5 ug/ml Biotin, 0.2 mM ^13C-Acetate and various concentrations of the compounds. The cells were incubated for 5 hours at CO2 incubator in hypoxic conditions (1% O2). At the end of the 5 hours' incubation, the cells were washed twice with cold PBS, harvested in 1 ml PBS and transfer into V-shaped HPLC glass vials and centrifuge for 10 min at 600 g at 4 C. The supernatant was removed, and the cells' pellets were stored at −80° C. until taken for saponification.
(§4) The cells pellets were resuspended with 0.5 ml of the 90% Methanol, 10% H2O, 0.3M NaOH mixture and incubated at 80° C. for 60 min. Following the incubation, 50 μl formic acid and 0.4 ml hexane were added and the mixture was vortexed for 2 minutes. The vials were left few minutes for phases separation and then 200 μl of the top hexane phase extracted to a new glass vial. The hexane was dried under nitrogen and reconstituted in 100 μl of Methanol:Acetonitrile 5:3 mixture. The solution transferred to Eppendorf tubes, spun down at 17000 G for 20 min and transferred to LC-MS vials.
(§5) The analysis was performed with Thermo Q Exactive mass spectrometer with HESI probe and Dionex Ultimate 3000 UHPLC system. The separations were performed on Phenomenex Kintex 2.6u XB-C18 100A 150×2.10 mm column by injecting 5 ul of each sample. The chromatography started with a linear gradient from 85% to 100% of organic solvent (Methanol:Acetonitrile 1:1) versus 10 mM Ammonium Acetate buffer pH 4.7 for 3.5 minutes, followed by 4.5 minutes of isocratic 100% organic solvent and then 3 minutes of isocratic initial conditions, at a flow rate of 0.3 ul/min. The MS source conditions that were used: capillary temperature 325° C., sheath flow 25, aux flow 15, spray voltage 3.8 kV, aux temperature 300° C. The data collected from Negative ion mode at resolution of 70000 at Full-MS mode in 75-1000 m/z range.
(§6) The analysis of ^13C acetate incorporation into fatty acids (palmitate, myristate and stearate) performed on TraceFinder 3.2.512.0. The negative control areas and ^13C isotopic theoretical natural abundance were subtracted from the samples areas. Total ^13C incorporation for each fatty-acid (palmitate, myristate and stearate) was calculated and presented as percentage of the total amount.

ACSS2 [2] = biological target: T1, ACSS2; experiment: cell-based; remark: listed apart in the source
Protocol: Testing the inhibitory effect of compounds on the cellular activity of ACSS2 was done by tracing the incorporation of ^13C from ^13C-acetate into fatty-acids in MDA-MB-468 cells under hypoxic conditions of 1% 02. The assay was done for 5 hours in DMEM with 5.5 mM glucose, 1 mM sodium Pyruvate, 0.65 mM Glutamine, 3.5 ug/ml Biotin, 1% dialyzed serum, 0.5 mM 13C-acetate and with different concentrations of the inhibitors. At the end of the incubation, the cells were washed with cold PBS, harvested into glass tubes and undergo saponification. The level of ^13C incorporation into Palmitate was done by LC-MS analysis and the level of inhibition was calculated with PRISM software.

ACSS2 [3] = biological target: T1, ACSS2; experiment: biochemical
ACSS2 [4] = biological target: T1, ACSS2; experiment: cell-based; remark: listed apart in the source
Protocol: as §1, §2, §3, §4, §5, §6

T1 sequence (Q9NR19 whole entry): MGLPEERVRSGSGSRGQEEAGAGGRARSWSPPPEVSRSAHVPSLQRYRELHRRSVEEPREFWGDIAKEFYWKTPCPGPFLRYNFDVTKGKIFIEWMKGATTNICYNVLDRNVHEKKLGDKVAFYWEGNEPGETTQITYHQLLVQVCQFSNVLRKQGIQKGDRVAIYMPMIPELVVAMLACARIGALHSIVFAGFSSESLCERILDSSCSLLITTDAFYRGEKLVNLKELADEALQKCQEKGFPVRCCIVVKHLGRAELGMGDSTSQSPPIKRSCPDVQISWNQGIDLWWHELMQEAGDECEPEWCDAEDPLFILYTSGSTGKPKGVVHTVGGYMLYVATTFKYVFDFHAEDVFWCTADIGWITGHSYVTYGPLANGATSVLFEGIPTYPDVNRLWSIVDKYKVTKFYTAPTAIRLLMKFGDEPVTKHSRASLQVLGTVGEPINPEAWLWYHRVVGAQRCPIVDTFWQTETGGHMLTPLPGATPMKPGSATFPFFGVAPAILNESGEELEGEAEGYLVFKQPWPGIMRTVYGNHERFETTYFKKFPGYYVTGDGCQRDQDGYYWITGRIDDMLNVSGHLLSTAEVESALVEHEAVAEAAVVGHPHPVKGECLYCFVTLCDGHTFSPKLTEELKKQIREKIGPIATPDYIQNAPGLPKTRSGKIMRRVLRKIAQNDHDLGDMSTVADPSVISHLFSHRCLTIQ

Row | Compound | IC50 (ACSS2 [1]) | IC50 (ACSS2 [2]) | IC50 (ACSS2 [3]) | IC50 (ACSS2 [4])
1 | CC1=NN(c2cccc(C(F)(F)F)c2)C(=O)C1C(=O)Nc1cccc(-c2cnccn2)c1 (stereo not drawn) [compound 166, 3-methyl-5-oxo-N-(3-(pyrazin-2-yl)phenyl)-1-(3-(trifuoromethyl)phenyl)-4,5-dihydro-1H-pyrazole-4-carboxamide] | < 100 nM (2×) and 100 nM to 1 µM | > 100 nM | 0.01 to 6 nM | 
2 | CC1=NN(c2ccccc2)C(=O)C1C(=O)Nc1cccc(C(C)(F)F)c1 (stereo not drawn) [compound 141, N-(3-(1,1-difluoroethyl)phenyl)-3-methyl-5-oxo-1-phenyl-4,5-dihydro-1H-pyrazole-4-carboxamide] | < 100 nM | 0.5 to 50 nM | 0.01 to 6 nM | < 100 nM
3 | CC(=O)c1cccc(NC(=O)C2C(=O)N(c3ccccc3)N=C2C)c1 (stereo not drawn) [compound 183, N-(3-acetylphenyl)-3-methyl-5-oxo-1-phenyl-4,5-dihydro-1H yrazole-4-carboxamide] |  |  | 6 to 100 nM | ≥ 1000 nM
4 | CC1=NN(c2ccccc2)C(=O)C1C(=O)Nc1cccc(-c2cnccn2)c1 (stereo not drawn) [compound 109, 3-methyl-5-oxo-1-phenyl-N-(3-(pyrazin-2-yl)phenyl)-4,5-dihydro-1H-pyrazole-4-carboxamide] |  | 50 to 100 nM | 0.01 to 6 nM | 100 to 1000 nM
5 | CC1=NN(c2cccc(C(=O)O)c2)C(=O)C1C(=O)Nc1cccc(-c2cnccn2)c1 (stereo not drawn) [compound 169] | ≥ 1000 nM | > 100 nM | 6 to 100 nM | 
6 | CCCC(=O)c1cccc(NC(=O)C2C(=O)N(c3ccccc3)N=C2C)c1 (stereo not drawn) [compound 114, N-(3-butyrylphenyl)-3-methyl-5-oxo-1-phenyl-4,5-dihydro-1H-pyrazole-4-carboxamide] |  |  | 6 to 100 nM | ≥ 1000 nM and 100 to 1000 nM
7 | CC1=NN(c2ccccc2)C(=O)C1C(=O)Nc1cccc(-c2ccco2)c1 (stereo not drawn) [compound 108, N-(3-(furan-2-yl)phenyl)-3-methyl-5-oxo-1-phenyl-4,5-dihydro-1H-pyrazole-4-carboxamide] | < 100 nM | 0.5 to 50 nM | 0.01 to 6 nM | < 100 nM
8 | COC(=O)c1cccc(NC(=O)C2C(=O)N(c3ccccc3)N=C2C)c1 (stereo not drawn) [compound 206, 3-(3-methyl-5-oxo-1-phenyl-4,5-dihydro-1H-pyrazole-4-carboxamido)benzoate] |  | 50 to 100 nM | 0.01 to 6 nM | 100 to 1000 nM
9 | CC1=NN(c2ccccc2)C(=O)C1C(=O)Nc1cccc(C2CC2)c1 (stereo not drawn) [compound 119, N-(3-cyclopropylphenyl)-3-methyl-5-oxo-1-phenyl-4,5-dihydro-1H-pyrazole-4-carboxamide] |  | 0.5 to 50 nM | 0.01 to 6 nM | 100 to 1000 nM
10 | CC1=NN(c2cccc(C(F)(F)F)c2)C(=O)C1C(=O)Nc1cccc(-c2ccco2)c1 (stereo not drawn) [compound 165] | < 100 nM | 0.5 to 50 nM | 0.01 to 6 nM | 
11 | COC(=O)c1cccc(N2N=C(C)C(C(=O)Nc3cccc(-c4cnccn4)c3)C2=O)c1 (stereo not drawn) [compound 164] |  | > 100 nM | 0.01 to 6 nM | 
12 | CC(=O)Cc1cccc(NC(=O)C2C(=O)N(c3ccccc3)N=C2C)c1 (stereo not drawn) [compound 145, 3-methyl-5-oxo-N-(3-(2-oxopropyl)phenyl)-1-phenyl-4,5-dihydro-1H-pyrazole-4-carboxamide] |  | > 100 nM | 0.01 to 6 nM | 
13 | CC1=NN(c2ccccc2)C(=O)C1C(=O)Nc1cccc(C(F)(F)F)c1 (stereo not drawn) [compound 208, 3-methyl-5-oxo-1-phenyl-N-(3-(trifluoromethyl)phenyl)-4,5-dihydro-1H-pyrazole-4-carboxamide] |  | > 100 nM | 6 to 100 nM | ≥ 1000 nM and 100 to 1000 nM
14 | CC1=NN(c2ccccc2)C(=O)C1C(=O)Nc1cccc(Br)c1 (stereo not drawn) [compound 215, N-(3-bromophenyl)-3-methyl-5-oxo-1-phenyl-4,5-dihydro-1H-pyrazole-4-carboxamide] |  |  | 6 to 100 nM | 100 to 1000 nM
15 | CCc1cccc(NC(=O)C2C(=O)N(c3ccc(OC(C)C)cc3)N=C2C)c1 (stereo not drawn) [compound 142, N-(3-ethylphenyl)-1-(4-isopropoxyphenyl)-3-methyl-5-oxo-4,5-dihydro-1H-pyrazole-4-carboxamide] | 100 to 1000 nM | > 100 nM | 6 to 100 nM | 100 to 1000 nM
16 | CC1=NN(c2ccccc2)C(=O)C1C(=O)Nc1cccc(C(=O)N(C)C)c1 (stereo not drawn) [compound 220, N-(3-(dimethylcarbamoyl)phenyl)-3-methyl-5-oxo-1-phenyl-4,5-dihydro-1H-pyrazole-4-carboxamide] | < 100 nM | > 100 nM | 0.01 to 6 nM | 100 to 1000 nM
17 | CC1=NN(c2cccc(C(=O)OC(C)C)c2)C(=O)C1C(=O)Nc1cccc(C(C)(F)F)c1 (stereo not drawn) [compound 236] |  | 0.5 to 50 nM | 0.01 to 6 nM | 
18 | CC1=NN(c2ccccc2)C(=O)C1C(=O)Nc1cccc(-c2ncco2)c1 (stereo not drawn) [compound 124, 3-methyl-N-(3-(oxazol-2-yl)phenyl)-5-oxo-1-phenyl-4,5-dihydro-1H-pyrazole-4-carboxamide] | 100 to 1000 nM | > 100 nM | 6 to 100 nM | 100 to 1000 nM
19 | CCc1cccc(NC(=O)C2C(=O)N(c3ccccc3)N=C2C)c1 (stereo not drawn) [compound 184, N-(3-ethylphenyl)-3-methyl-5-oxo-1-phenyl-4,5-dihydro-1H-pyrazole-4-carboxamide] |  |  | 6 to 100 nM | 100 to 1000 nM
20 | CC1=NN(c2ccccc2)C(=O)C1C(=O)Nc1cccc(-c2ncc[nH]2)c1 (stereo not drawn) [compound 107, N-(3-(1H-imidazol-2-yl)phenyl)-3-methyl-5-oxo-1-phenyl-4,5-dihydro-1H-pyrazole-4-carboxamide] | 100 to 1000 nM | 0.5 to 50 nM | 6 to 100 nM | ≥ 1000 nM and 100 to 1000 nM
21 | CC1=NN(c2cccc(C(F)(F)F)c2)C(=O)C1C(=O)Nc1cccc(-c2ncc[nH]2)c1 (stereo not drawn) [compound 149, N-(3-(1H-imidazol-2-yl)phenyl)-3-methyl-5-oxo-1-(3-(trifluoromethyl)phenyl)-4,5-dihydro-1H-pyrazole-4-carboxamide] |  | > 100 nM | 6 to 100 nM | 
22 | CCC(=O)c1cccc(NC(=O)C2C(=O)N(c3ccccc3)N=C2C)c1 (stereo not drawn) [compound 117, 3-methyl-5-oxo-1-phenyl-N-(3-propionylphenyl)-4,5-dihydro-1H-pyrazole-4-carboxamide] |  | 0.5 to 50 nM | 0.01 to 6 nM | < 100 nM and 100 to 1000 nM
23 | CC1=NN(c2ccncc2)C(=O)C1C(=O)Nc1cccc(C(C)(F)F)c1 (stereo not drawn) [compound 231] |  | > 100 nM | 6 to 100 nM | 
24 | CC1=NN(c2cccc(C(=O)OC(C)C)c2)C(=O)C1C(=O)Nc1cccc(-c2cnccn2)c1 (stereo not drawn) [compound 234] |  | > 100 nM | 0.01 to 6 nM | 
25 | CC1=NN(c2cccc(-c3ncc(C)o3)c2)C(=O)C1C(=O)Nc1cccc(C(C)(F)F)c1 (stereo not drawn) [compound 229] |  | > 100 nM | 0.01 to 6 nM | 
26 | CC1=NN(c2cccc(C(=O)OC(C)C)c2)C(=O)C1C(=O)Nc1cccc(-c2ncc[nH]2)c1 (stereo not drawn) [compound 235] |  | > 100 nM | 6 to 100 nM | 
27 | CCc1cccc(NC(=O)C2C(=O)N(c3ccc4c(c3)OCO4)N=C2C)c1 (stereo not drawn) [compound 168] | 100 to 1000 nM | 0.5 to 50 nM | 6 to 100 nM | 
28 | CC1=NN(c2cccc(C(=O)O)c2)C(=O)C1C(=O)Nc1cccc(-c2ccco2)c1 (stereo not drawn) [compound 159, 3-(4-((3-(furan-2-yl)phenyl)carbamoyl)-3-methyl-5-oxo-4,5-dihydro-1H-pyrazol-1-yl)benzoic acid] | ≥ 1000 nM | > 100 nM | 6 to 100 nM | 
29 | CC1=NN(c2cccc(-c3ncco3)c2)C(=O)C1C(=O)Nc1cccc(C(C)(F)F)c1 (stereo not drawn) [compound 230] |  | 0.5 to 50 nM | 0.01 to 6 nM | 
30 | CCc1cccc(NC(=O)C2C(=O)N(c3ccc(OC)cc3)N=C2C)c1 (stereo not drawn) [compound 138, N-(3-ethylphenyl)-1-(4-methoxyphenyl)-3-methyl-5-oxo-4,5-dihydro-1H-pyrazole-4-carboxamide] |  | 0.5 to 50 nM | 6 to 100 nM | 100 to 1000 nM

The next lines start with the values.

Row | IC50 (ACSS2 [1]) | IC50 (ACSS2 [2]) | IC50 (ACSS2 [3]) | IC50 (ACSS2 [4]) | Compound
31 |  | 0.5 to 50 nM | 0.01 to 6 nM |  | COc1ccc(N2N=C(C)C(C(=O)Nc3cccc(C(C)(F)F)c3)C2=O)nc1 (stereo not drawn) [compound 304]
32 |  | 0.5 to 50 nM | 0.01 to 6 nM |  | CC1=NN(c2ccc(OC(F)(F)F)c(-c3ncco3)c2)C(=O)C1C(=O)Nc1cccc(C(C)(F)F)c1 (stereo not drawn) [compound 291]
33 |  | > 100 nM | 6 to 100 nM |  | CC1=NN(c2cccc(C(=O)OC(C)C)c2)C(=O)C1C(=O)Nc1cccc(-c2ccco2)c1 (stereo not drawn) [compound 237]
34 |  | > 100 nM | 0.01 to 6 nM |  | COc1cccc(N2N=C(C)C(C(=O)Nc3cccc(-c4ncc[nH]4)c3)C2=O)c1 (stereo not drawn) [compound 248]
35 |  | > 100 nM | 0.01 to 6 nM |  | COc1ccc(N2N=C(C)C(C(=O)Nc3cccc(-c4cnccn4)c3)C2=O)cn1 (stereo not drawn) [compound 243]
36 |  | 0.5 to 50 nM | 0.01 to 6 nM |  | COc1cccc(N2N=C(C)C(C(=O)Nc3cccc(-c4ccco4)c3)C2=O)c1 (stereo not drawn) [compound 247]
37 |  | 0.5 to 50 nM | 0.01 to 6 nM |  | COc1ccc(N2N=C(C)C(C(=O)Nc3cccc(-c4ccco4)c3)C2=O)cn1 (stereo not drawn) [compound 246]
38 |  | 0.5 to 50 nM | 0.01 to 6 nM |  | COc1ccc(N2N=C(C)C(C(=O)Nc3cccc(-c4ccco4)c3)C2=O)cc1 (stereo not drawn) [compound 266]
39 |  | 0.5 to 50 nM | 0.01 to 6 nM |  | COc1ccc(N2N=C(C)C(C(=O)Nc3cccc(C(C)(F)F)c3)C2=O)cc1C (stereo not drawn) [compound 303]
40 |  | 0.5 to 50 nM | 6 to 100 nM |  | CC1=NN(c2cccc(S(=O)(=O)N(C)C)c2)C(=O)C1C(=O)Nc1cccc(-c2ccco2)c1 (stereo not drawn) [compound 263]
41 |  | 0.5 to 50 nM | 0.01 to 6 nM |  | CC1=NN(c2ccc(OC(F)(F)F)c(-c3ncco3)c2)C(=O)C1C(=O)Nc1cccc(-c2ccco2)c1 (stereo not drawn) [compound 292]
42 |  | > 100 nM | 6 to 100 nM |  | CC1=NN(c2cccc(-c3ncco3)c2)C(=O)C1C(=O)Nc1cccc(-c2ncc[nH]2)c1 (stereo not drawn) [compound 279]
43 |  | 0.5 to 50 nM | 0.01 to 6 nM |  | COc1ccc(N2N=C(C)C(C(=O)Nc3cccc(C(C)(F)F)c3)C2=O)cc1-c1nccn1C (stereo not drawn) [compound 300]
44 |  | 0.5 to 50 nM | 0.01 to 6 nM |  | CC1=NN(c2cccc(C(F)(F)F)c2)C(=O)C1C(=O)Nc1cccc(C(C)(F)F)c1 (stereo not drawn) [compound 271]

— US10851064B2, “ACSS2 inhibitors and methods of use thereof” (METABOMED LTD., priority 2017, dated 2020)
